Measurements from patent US12648923B2, “Dietary butyrate and its uses” (SOCIETE DES PRODUITS NESTLE S.A., priority 2019, dated 2026).

Target: T1, porcine pancreatic lipase (from pancreatin) (Sus scrofa, UniProt P00591)
T1 construct: pancreatin (Porcine, USP×8, P7585); purchased Sigma-Aldrich P7585; host or cells: porcine pancreas extract (pancreatin)
T1 sequence (P00591 1-450): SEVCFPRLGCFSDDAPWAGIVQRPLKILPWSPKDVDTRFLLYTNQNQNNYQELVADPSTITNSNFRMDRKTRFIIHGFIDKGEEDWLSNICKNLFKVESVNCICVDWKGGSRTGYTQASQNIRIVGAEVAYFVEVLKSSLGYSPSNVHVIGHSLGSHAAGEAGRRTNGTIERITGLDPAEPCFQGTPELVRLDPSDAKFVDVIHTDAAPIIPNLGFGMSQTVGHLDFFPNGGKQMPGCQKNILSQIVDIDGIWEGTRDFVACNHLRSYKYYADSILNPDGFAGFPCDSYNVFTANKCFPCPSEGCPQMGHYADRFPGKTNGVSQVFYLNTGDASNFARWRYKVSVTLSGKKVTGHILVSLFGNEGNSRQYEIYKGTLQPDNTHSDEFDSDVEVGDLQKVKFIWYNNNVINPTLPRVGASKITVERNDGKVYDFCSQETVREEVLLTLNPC
T1 sequence (P02703 23-112 partner): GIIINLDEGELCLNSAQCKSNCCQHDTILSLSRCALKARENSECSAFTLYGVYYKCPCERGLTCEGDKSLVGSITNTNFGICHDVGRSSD
Test: In vitro digestion in simulated intestinal fluid (SIF), pH-stat
Assay type: in vitro ADME
Details: SIF alone; emulsion with 200 mg fat; pH 6.8, 37° C.
Experimental: 10 wt % oil in water emulsions stabilised by 0.3 wt % polyoxyethylene sorbitan mono-oleate (Tween® 80) were prepared by mixing the Tween 80 into the oil phase at 40° C., then mixing with the water phase using a magnetic stirrer. An emulsion was then created using a Hielscher UP 400S ultrasonic probe homogeniser equipped with a 5 mm diameter rod-like probe by applying 100% amplitude at 100% cycle for 2 minutes whilst the sample was cooled using ice water.
The lipid emulsion (2 mL) containing 200 mg of fat was subjected to gastrointestinal in vitro lipolysis. […]
The intestinal digestion step was performed in the pH stat where the pH was kept constant at 6.8 by addition of NaOH (0.05 M). […] During the intestinal phase of digestion, the kinetics of digestion were followed using a pH-stat (TIM856, Radiometer) technique and expressed as titratable acid (rather than fatty acid) that was calculated by the equation: TA=VNaOH×0:05×1000 […]
Since the digestion of dietary lipids involves lipases of both gastric and intestinal origin, lipid digestibility was assessed using two digestion models i) simulated intestinal fluid (SIF) with porcine pancreatic lipase (PPL) and ii) sequential digestion in simulated gastric fluid (SGF) with rabbit gastric lipase (RGL) followed by simulated intestinal fluid (SIF) with porcine pancreatic lipase (PPL).

initial rate of lipolysis: 223 ± 59 µmol/min
Compound: CCCC(=O)OCC(COC(=O)CCC)OC(=O)CCC [tributyrin]
